{
  "source": "patent US20190175534A1",
  "about": "“PHARMACEUTICAL COMPOSITIONS COMPRISING DGLA AND USE OF SAME” (DS Biopharma Limited, priority 2016, published 2019)",
  "key": {"[1]": {"test_system": "patients with moderate to severe atopic dermatitis", "test": "Phase II placebo-controlled study of oral DS107G: efficacy (IGA, EASI, SCORAD, pruritus VAS, BSA)", "format": "in vivo, human", "settings": "for IGA Non-Responders at Week 8, (%) / IGA Responders at Week 8, (%) / IGA Score Week 8: 0 - Clear, (%) / IGA Score Week 8: 1 - Almost Clear, (%) / IGA Score Week 8: 2 - Mild, (%) / IGA Score Week 8: 3 - Moderate, (%) / IGA Score Week 8: 4 - Severe, (%) / IGA Score Week 8: 5 - Very Severe, (%): ITT; for Visual analog scale of pruritus, Week 8/ET Actual, Mean / Visual analog scale of pruritus, Week 8/ET Actual, Median: oral 2 g once daily", "protocol": "A randomised, double-blind, placebo-controlled, phase II study was performed to assess the efficacy and safety of orally administered DS107G (DGLA) to patients with moderate to severe atopic dermatitis. The primary objective of the study was to compare the efficacy of orally administered DS107G capsules, versus placebo, in the treatment of adult patients with moderate to severe atopic dermatitis. The secondary objective was to assess the safety of orally administered DS107G capsules, versus placebo, in adult patients with moderate to severe atopic dermatitis. The primary study endpoint was the proportion of patients achieving an IGA (Investigator Global Assessment) of 0 (clear) or 1 (almost clear) and a decrease of at least 2 points in IGA at week 8. Secondary study endpoints included:\nApproximately 100 patients with moderate to severe atopic dermatitis were included in this multicenter, double-blind, placebo controlled, phase IIa study. All subjects signed an informed consent and underwent screening for study eligibility. Subjects were randomized (1:1) at baseline visit to either receive oral DS107G 2 g or placebo, once daily for 8 weeks in a fasting state.\nSubjects visited the clinic on 6 occasions: at screening, baseline, week 2, week 4, week 8 (end of treatment/early termination) and week 10 (follow-up). All subjects exited the study at the week 10 visit. The primary efficacy variable was the proportion of patients achieving an IGA of 0 (clear) or 1 (almost clear), and a decrease of at least 2 points in IGA at week 8. Secondary efficacy variables included: IGA at other visits, pruritus (obtained from the SCORAD visual analog scale), EASI, BSA, POEM, DLQI, SCORAD and TEWL (for selected sites only). Safety was assessed through adverse events, physical examination, vital signs and safety laboratory tests (including pregnancy tests for women of childbearing potential), Pharmacokinetic samples were obtained at Baseline (Day 0), week 4 and week 8 visits in order to measure total and free DGLA plasma trough levels. Separate plasma samples were retained for later analysis of total fatty acid profile and interleukin profile.\nThe EASI is a composite score ranging from 0-72 that takes into account the degree of erythema, induration/papulation, excoriation, and lichenification (each scored from 0 to 3 separately) for each of four body regions, with adjustment for the percent of BSA involved for each body region and for the proportion of the body region to the whole body. A detailed procedure of EASI score calculation is provided below.\nSCORAD is calculated as follows: Six items (erythema, edema/papulation, oozing/crusts, excoriation, lichenification, and dryness) are selected to evaluate the AD severity. The intensity of each item is graded using a 4-point scale:\nThe overall BSA affected by AD is evaluated (from 0 to 100%) and divided by 5. One patient's palm represents 1% of his/her total BSA. The maximum is 20.\nSubjective items include loss of sleep and the occurrence of pruritus. These are evaluated by asking patients to indicate on the 10-cm scale (0-10) on the assessment form the point corresponding to the average value for the last three days/nights. The combined maximum score of these two is 20.\nThe sum of the above measures represents the SCORAD which can vary from 0 to 103. If the subjective scores of pruritus and loss of sleep are excluded, the SCORAD becomes objective SCORAD (score range 0-83).\nBody Surface Area (BSA). The overall BSA affected by AD will be evaluated (from 0 to 100%) at each visit. One patient's palm represents 1% of his/her total BSA. For all study visits, except at screening, the BSA of involved skin will be measured with the SCORAD measurement and evaluated as a separate endpoint.\nSubjects who fulfilled all the inclusion and none of the exclusion criteria were accepted in the study. Each subject read and signed an informed consent form prior to any screening procedures being performed. […]"}, "[2]": {"test_system": "patients with moderate to severe atopic dermatitis", "test": "Phase II study of oral DS107G: eosinophil concentrations and responders by ethnicity", "format": "in vivo, human", "settings": "for Patients classified as Responders: IGA 0 or 1 at Week 8 with 2-point decrease", "protocol": "The primary endpoint can be translated as a responder analysis where a subject is classified as Responder if he/she achieves an IGA score of 0 (clear) or 1 (almost clear) at Week 8, considering a 2-point decrease from baseline. The comparison between groups for the primary endpoint was done using a Cochran-Mantel-Haenszel test, with site included as a stratification factor. A supportive analysis was performed using a Fisher's exact test. The primary efficacy analysis was done using observed values and a supportive analysis was conducted using the last observation carried forward (LOCF) approach. The analyses was done using the ITT population and served as the primary analysis, while the analysis of the primary endpoint using the PP population was used as a sensitivity analysis.\nA surprising discovery was observed when the data was further interrogated.\nEosinophils are a type of white blood cell that play an important role in the body's response to allergic reactions, asthma, and infection with parasites. Eosinophils usually account for less than 7% of the circulating white blood cells (100 to 500 eosinophils per microliter of blood). These cells have a role in the protective immunity against certain parasites but also contribute to the inflammation that occurs in allergic disorders.\nFIG. 30A-B. In particular, 56% of DS107-treated African America patients were classified as Responders, versus only 7% of Caucasian patients. FIG. 31A-B. As discussed in detail above, a subject is classified as a Responder if he/she achieves an IGA score of 0 (clear) or 1 (almost clear) at Week 8, considering a 2-point decrease from baseline. FIG. 32 depicts the same data for eosinophil concentrations in all Responders in the total population (FIG. 32A) and for DS107 treated patients (FIG. 32B) and placebo treated patients (FIG. 32C). […] FIG. 33A-C. […] FIGS. 34A-C and FIGS. 35A-C."}, "[3]": {"test_system": "spontaneous hypertensive rats", "test": "Arterial pressure in spontaneous hypertensive rats after seven days of gavage, with intravenous phenylephrine challenge", "format": "in vivo, rat", "settings": "DGLA 50 or 500 mg/kg alone; effect eliminated by aspirin", "procedure": "An in vivo investigation of anti-hypertension efficacy following co-administration of DGLA and aspirin in spontaneous hypertensive rats was conducted. This experiment investigated the efficacy of DGLA when co-administered chronically with aspirin to reduce the hypertensive response induced acutely by phenylephrine in spontaneous hypertensive rats. Spontaneously hypertensive adult male rats (250-300 g), bred by Charles River Laboratories, were used for this assay. […] The animals were pair-housed by group (low dose+aspirin, high dose+aspirin or aspirin alone) for the duration of the oral gavage prior to surgery.\nThe test article was formulated using olive oil as the vehicle. This stock solution was then administered by oral gavage once per day for seven consecutive days. A low and a high dose (50 mg/kg and 500 mg/kg) were tested.\nA 5 mg/ml stock solution of aspirin was prepared by dissolving the appropriate amount of aspirin in 100% DMSO which was then diluted in water. The concentration of DMSO was less than 1%. The appropriate volume was administered by oral gavage to each animal once per day for seven consecutive days. The stock solution was stored at room temperature and was considered stable for the duration of the gavage.\nThe appropriate volume was administered to each animal by an intravenous injection at the end of the experiment on the surgery day. The stock solution was stored at 4° C. and was considered stable for the duration of the experiment.\nMale spontaneous hypertensive rats weighing approximately 300 g arrived at the facility at least two days before beginning the oral gavage. Animals were assigned to one of three groups (low dose+aspirin, high dose+aspirin, and aspirin), and were pair-housed during the acclimation period. […]\nRats were anesthetized with a 2.5-3.0% isoflurane-O2 mixture in an induction box. […] Blood pressure, systemic arterial pressure (SAP), and heart rate were monitored continuously for a total of half an hour. Hypertension was detected as an increase in diastolic, systolic or mean blood pressure. […]"}, "[4]": {"settings": "oral 2 g once daily 8 weeks, n 35"}},
  "data": [
    {"compound": "CCCCC/C=C\\C/C=C\\C/C=C\\CCCCCCC(=O)O", "note": "[DGLA, Dihomo gamma linolenic acid]", "values": [
      {"measurement": "IGA Non-Responders at Week 8, (%)", "setting": "[1]; Moderate at baseline", "value": "(72.4) %"},
      {"measurement": "IGA Responders at Week 8, (%)", "setting": "[1]; Moderate at baseline", "value": "(27.6) %"},
      {"measurement": "IGA Score Week 8: 0 - Clear, (%)", "setting": "[1]; Moderate at baseline", "value": "(13.8) %"},
      {"measurement": "IGA Score Week 8: 1 - Almost Clear, (%)", "setting": "[1]; Moderate at baseline", "value": "(13.8) %"},
      {"measurement": "IGA Score Week 8: 2 - Mild, (%)", "setting": "[1]; Moderate at baseline", "value": "(20.7) %"},
      {"measurement": "IGA Score Week 8: 3 - Moderate, (%)", "setting": "[1]; Moderate at baseline", "value": "(13.8) %"},
      {"measurement": "IGA Score Week 8: 4 - Severe, (%)", "setting": "[1]; Moderate at baseline", "value": "(3.4) %"},
      {"measurement": "IGA Score Week 8: 5 - Very Severe, (%)", "setting": "[1]; Moderate at baseline", "value": "(0.0) %"},
      {"measurement": "IGA Non-Responders at Week 8, (%)", "setting": "[1]; Very Severe/Severe at baseline", "value": "(72.7) %"},
      {"measurement": "IGA Score Week 8: 0 - Clear, (%)", "setting": "[1]; Very Severe/Severe at baseline", "value": "(0.0) %"},
      {"measurement": "IGA Score Week 8: 1 - Almost Clear, (%)", "setting": "[1]; Very Severe/Severe at baseline", "value": "(13.6) %"},
      {"measurement": "IGA Score Week 8: 2 - Mild, (%)", "setting": "[1]; Very Severe/Severe at baseline", "value": "(13.6) %"},
      {"measurement": "IGA Score Week 8: 3 - Moderate, (%)", "setting": "[1]; Very Severe/Severe at baseline", "value": "(27.3) %"},
      {"measurement": "IGA Score Week 8: 4 - Severe, (%)", "setting": "[1]; Very Severe/Severe at baseline", "value": "(13.6) %"},
      {"measurement": "IGA Score Week 8: 5 - Very Severe, (%)", "setting": "[1]; Very Severe/Severe at baseline", "value": "(4.5) %"},
      {"measurement": "IGA Responders at Week 8, (%)", "setting": "[1]; Very Severe/Severe at baseline, p-value 0.542", "value": "(27.3) %"},
      {"measurement": "IGA Non-Responders at Week 8, (%)", "setting": "[1]; total population (N = 51)", "value": "(72.5) %"},
      {"measurement": "IGA Score Week 8: 0 - Clear, (%)", "setting": "[1]; total population (N = 51)", "value": "(7.8) %"},
      {"measurement": "IGA Score Week 8: 1 - Almost Clear, (%)", "setting": "[1]; total population (N = 51)", "value": "(13.7) %"},
      {"measurement": "IGA Score Week 8: 2 - Mild, (%)", "setting": "[1]; total population (N = 51)", "value": "(17.6) %"},
      {"measurement": "IGA Score Week 8: 3 - Moderate, (%)", "setting": "[1]; total population (N = 51)", "value": "(19.6) %"},
      {"measurement": "IGA Score Week 8: 4 - Severe, (%)", "setting": "[1]; total population (N = 51)", "value": "(7.8) %"},
      {"measurement": "IGA Score Week 8: 5 - Very Severe, (%)", "setting": "[1]; total population (N = 51)", "value": "(2.0) %"},
      {"measurement": "IGA Responders at Week 8, (%)", "setting": "[1]; total population, decrease of at least 2 points in IGA score, p-value 0.065 (Cochran-Mantel-Haenszel), 0.228 (Fisher Exact)", "value": "(27.5) %"},
      {"measurement": "Visual analog scale of pruritus, Week 8/ET Actual, Mean", "setting": "[1]; Table 9A (Week 4), n 35", "value": 4.6},
      {"measurement": "Visual analog scale of pruritus, Week 8/ET Actual, Median", "setting": "[1]; Table 9A (Week 4), n 35", "value": 4.0},
      {"measurement": "Visual analog scale of pruritus, Week 8/ET Actual, Mean", "setting": "[1]; Table 9B (Week 8), n 35", "value": 4.6},
      {"measurement": "Visual analog scale of pruritus, Week 8/ET Actual, Median", "setting": "[1]; Table 9B (Week 8), n 35", "value": 4.0},
      {"measurement": "EASI, Change from baseline, LSMEANS", "setting": "[1]; Week 8/ET, ANCOVA, p-value 0.831 vs placebo", "value": "−8.0"},
      {"measurement": "Primary efficacy end point (two point drop in IGA and end of treatment IGA of 0 or 1) over placebo", "setting": "[1]; intent to treat analysis, overall, p=0.057", "value": "clinically significant trend"},
      {"measurement": "Primary efficacy end point (two point drop in IGA and end of treatment IGA of 0 or 1) over placebo", "setting": "[1]; moderate patient subgroup (n=67), p=0.036", "value": "statistically significant improvement"},
      {"measurement": "Body surface area affected by atopic dermatitis, Week 8/ET Actual, Median", "setting": "[1]; [4]", "value": 12.0},
      {"measurement": "EASI, Week 8/ET Actual, Median", "setting": "[1]; [4]", "value": 7.4},
      {"measurement": "Eczema area and severity index (EASI), Week 8/ET Actual, Mean", "setting": "[1]; [4]", "value": 9.3},
      {"measurement": "Pruritus score [visual analog scale]", "setting": "[1]; within four weeks of dosing, p=0.015", "value": "statistically significant reduction of itch"},
      {"measurement": "Patients classified as Responders", "setting": "[2]; African America patients", "value": 56, "unit": "%"},
      {"measurement": "Patients classified as Responders", "setting": "[2]; Caucasian patients", "value": 7, "unit": "%"},
      {"measurement": "Response rate in subjects having low baseline eosinophil counts", "setting": "[2]; in vivo", "value": "higher response rate"},
      {"measurement": "Effect on arterial pressure in spontaneously hypertensive rats", "setting": "[3]", "value": "successfully decreases the arterial pressure"}
    ]}
  ]
}
